Reference: ChEMBL document CHEMBL5034019, “Discovery of the Next-Generation Pan-TRK Kinase Inhibitors for the Treatment of Cancer” (J Med Chem, 2021)
Calls of active or inactive are those of the source. The rule behind the calls is not given here.

What was measured:
[1] = Toxicity in […] xenografted with mouse BaF3 cells transfected with ETV6-NTRK3-G623R mutant assessed as death at 100 mg/kg, po administered once daily for 21 days and measured twice weekly; format: organism-based; details: in vivo, 504 h, time 21 day
BaF3 [2] = test: Antitumor activity against mouse BaF3 cells transfected with ETV6-NTRK3-G623R mutant xenografted in mouse assessed as tumor growth inhibition at 100 mg/kg, po administered once daily for 21 days and measured twice weekly; details: time 21.0 day
[3] = target: Voltage-gated inwardly rectifying potassium channel KCNH2 (Homo sapiens, UniProt Q12809); test: Inhibition of human ERG
[4] = system: Mast/stem cell growth factor receptor Kit (Homo sapiens), P10721 [V560G]; test: Inhibition of recombinant human C-Kit V560G mutant (544 to end residues) assessed as residual activity at 0.5 uM poly(Glu, Tyr) 4:1 as substrate incubated 40 mins in presence of [gamma-33ATP] by scintillation counting based radiometry assay relative to control
[5] = target: Fibroblast growth factor receptor 2 (Homo sapiens) (UniProt P21802); test: Inhibition of recombinant human FGFR2 (456 to 770 residues) assessed as residual activity at 0.5 uM using poly(Glu, Tyr) 4:1 as substrate at 40 mins in presence of [gamma-33ATP] by scintillation counting based radiometry assay relative to control
[6] = target: Fibroblast growth factor receptor 3 (Homo sapiens) (UniProt P22607); test: Inhibition of recombinant human FGFR3 (447 to 761 residues) assessed as residual activity at 0.5 uM using poly(Glu, Tyr) 4:1 as substrate at 40 mins in presence of [gamma-33ATP] by scintillation counting based radiometry assay relative to control
[7] = system: Hepatocyte growth factor receptor (Homo sapiens), P08581 [M1268T]; test: Inhibition of recombinant human Met M1268T mutant (974 to end residues) assessed as residual activity at 0.5 uM using KKKGQEEEYVFIE as substrate incubated for 40 mins in presence of [gamma-33P]-ATP by scintillation counting method relative to control
[8] = system: Hepatocyte growth factor receptor (Homo sapiens), P08581 [Y1248C]; test: Inhibition of recombinant human Met Y1248C mutant (974 to end residues) assessed as residual activity at 0.5 uM using KKKGQEEEYVFIE as substrate incubated for 40 mins in presence of [gamma-33P]-ATP by scintillation counting method relative to control
[9] = system: Proto-oncogene tyrosine-protein kinase receptor Ret (Homo sapiens), P07949 [V804M]; test: Inhibition of recombinant human Ret V804M mutant (658 to end residues) assessed as residual activity at 0.5 uM using […] as substrate incubated for 40 mins in presence of [gamma33P]ATP by scintillation counting based radiometry assay relative to control
[10] = target: Proto-oncogene tyrosine-protein kinase Src (Homo sapiens) (UniProt P12931); test: Inhibition of human Src (1 to 530 residues) assessed as residual activity at 0.5 uM using GGEEEEYFELVKKKK as substrate measured after 40 mins in presence of [gamma33P]ATP by scintillation counting method relative to control
[11] = system: Proto-oncogene tyrosine-protein kinase Src (Homo sapiens), P12931 [T341M]; test: Inhibition of recombinant full-length human Src T341M mutant assessed as residual activity at 0.5 uM using GGEEEEYFELVKKKK as substrate measured after 40 mins in presence of [gamma33P]ATP by scintillation counting method relative to control
[12] = Clearance in male Sprague-Dawley rat at 2 mg/kg, iv measured up to 24 hrs by LC/MS/MS analysis; format: ADME, organism-based; details: in vivo
[13] = target: Proto-oncogene tyrosine-protein kinase ROS (Homo sapiens, UniProt P08922)
Description: Inhibition of ROS1 (unknown origin) incubated for 120 mins in presence of 33P-ATP

[14] = Toxicity in mouse xenografted with mouse BaF3 cells transfected with ETV6-NTRK3-G623R mutant assessed as weight loss at 20 mg/kg, po administered once daily for 21 days and measured twice weekly; details: in vivo, 504 h
BaF3 [15] = test: Antitumor activity against mouse BaF3 cells transfected with ETV6-NTRK3-G623R mutant xenografted in mouse assessed as tumor growth inhibition at 5 to 20 mg/kg, po administered once daily for 21 days and measured twice weekly; details: dose 5-20 mg/kg, time 21.0 day

Sequence of Fibroblast growth factor receptor 3 (Homo sapiens) (P22607 23-806 limits assumed): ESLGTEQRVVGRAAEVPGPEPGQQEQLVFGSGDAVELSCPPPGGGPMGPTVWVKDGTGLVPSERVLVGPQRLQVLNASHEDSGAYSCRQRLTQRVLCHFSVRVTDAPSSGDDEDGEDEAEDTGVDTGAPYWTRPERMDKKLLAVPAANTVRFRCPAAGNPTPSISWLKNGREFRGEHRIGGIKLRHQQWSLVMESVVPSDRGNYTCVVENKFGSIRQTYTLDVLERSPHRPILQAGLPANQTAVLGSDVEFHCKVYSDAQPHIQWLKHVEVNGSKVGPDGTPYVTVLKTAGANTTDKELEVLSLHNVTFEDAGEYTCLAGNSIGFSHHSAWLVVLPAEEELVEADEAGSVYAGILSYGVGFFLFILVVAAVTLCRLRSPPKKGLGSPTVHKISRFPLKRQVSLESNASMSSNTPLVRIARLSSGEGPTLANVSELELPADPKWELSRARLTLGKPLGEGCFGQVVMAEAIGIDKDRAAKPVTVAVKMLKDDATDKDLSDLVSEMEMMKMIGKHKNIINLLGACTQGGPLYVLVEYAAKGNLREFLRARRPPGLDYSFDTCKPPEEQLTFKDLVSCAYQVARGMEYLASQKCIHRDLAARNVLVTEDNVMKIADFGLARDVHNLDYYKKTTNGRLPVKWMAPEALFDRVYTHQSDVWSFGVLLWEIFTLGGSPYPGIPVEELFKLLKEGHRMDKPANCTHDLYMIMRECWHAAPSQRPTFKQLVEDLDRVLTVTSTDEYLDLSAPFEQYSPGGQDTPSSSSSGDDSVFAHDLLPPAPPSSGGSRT
Sequence of Proto-oncogene tyrosine-protein kinase receptor Ret (Homo sapiens), P07949 [V804M] (P07949 whole entry V804M, the tested form may be a part): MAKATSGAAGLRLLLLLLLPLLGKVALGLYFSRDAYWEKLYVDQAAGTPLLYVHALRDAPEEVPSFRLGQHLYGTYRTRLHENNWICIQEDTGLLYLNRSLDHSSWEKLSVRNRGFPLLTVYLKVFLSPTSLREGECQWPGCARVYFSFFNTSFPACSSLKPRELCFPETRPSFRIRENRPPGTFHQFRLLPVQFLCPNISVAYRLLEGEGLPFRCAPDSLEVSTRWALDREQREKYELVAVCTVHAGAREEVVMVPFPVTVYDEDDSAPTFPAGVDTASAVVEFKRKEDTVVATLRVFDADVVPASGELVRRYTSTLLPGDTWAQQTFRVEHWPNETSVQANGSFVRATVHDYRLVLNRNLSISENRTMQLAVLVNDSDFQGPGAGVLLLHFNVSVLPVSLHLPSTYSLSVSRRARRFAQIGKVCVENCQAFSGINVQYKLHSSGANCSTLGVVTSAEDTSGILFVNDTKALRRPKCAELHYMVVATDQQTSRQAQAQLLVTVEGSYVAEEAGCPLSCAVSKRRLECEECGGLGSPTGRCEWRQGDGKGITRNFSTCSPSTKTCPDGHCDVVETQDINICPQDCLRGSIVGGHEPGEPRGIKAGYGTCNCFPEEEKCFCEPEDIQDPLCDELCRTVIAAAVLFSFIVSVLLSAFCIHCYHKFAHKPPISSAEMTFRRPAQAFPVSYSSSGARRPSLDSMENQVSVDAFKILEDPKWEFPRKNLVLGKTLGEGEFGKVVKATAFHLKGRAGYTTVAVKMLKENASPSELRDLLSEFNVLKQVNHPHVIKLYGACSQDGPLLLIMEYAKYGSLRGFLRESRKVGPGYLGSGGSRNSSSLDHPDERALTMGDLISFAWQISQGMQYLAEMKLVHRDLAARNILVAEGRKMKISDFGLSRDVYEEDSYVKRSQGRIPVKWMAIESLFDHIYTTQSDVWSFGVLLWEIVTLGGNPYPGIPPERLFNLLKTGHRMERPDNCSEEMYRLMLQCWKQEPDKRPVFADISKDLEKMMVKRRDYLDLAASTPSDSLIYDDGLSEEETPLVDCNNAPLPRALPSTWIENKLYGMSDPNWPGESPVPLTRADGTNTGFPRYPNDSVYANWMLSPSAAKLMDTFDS
Sequence of Voltage-gated inwardly rectifying potassium channel KCNH2 (Q12809 whole entry): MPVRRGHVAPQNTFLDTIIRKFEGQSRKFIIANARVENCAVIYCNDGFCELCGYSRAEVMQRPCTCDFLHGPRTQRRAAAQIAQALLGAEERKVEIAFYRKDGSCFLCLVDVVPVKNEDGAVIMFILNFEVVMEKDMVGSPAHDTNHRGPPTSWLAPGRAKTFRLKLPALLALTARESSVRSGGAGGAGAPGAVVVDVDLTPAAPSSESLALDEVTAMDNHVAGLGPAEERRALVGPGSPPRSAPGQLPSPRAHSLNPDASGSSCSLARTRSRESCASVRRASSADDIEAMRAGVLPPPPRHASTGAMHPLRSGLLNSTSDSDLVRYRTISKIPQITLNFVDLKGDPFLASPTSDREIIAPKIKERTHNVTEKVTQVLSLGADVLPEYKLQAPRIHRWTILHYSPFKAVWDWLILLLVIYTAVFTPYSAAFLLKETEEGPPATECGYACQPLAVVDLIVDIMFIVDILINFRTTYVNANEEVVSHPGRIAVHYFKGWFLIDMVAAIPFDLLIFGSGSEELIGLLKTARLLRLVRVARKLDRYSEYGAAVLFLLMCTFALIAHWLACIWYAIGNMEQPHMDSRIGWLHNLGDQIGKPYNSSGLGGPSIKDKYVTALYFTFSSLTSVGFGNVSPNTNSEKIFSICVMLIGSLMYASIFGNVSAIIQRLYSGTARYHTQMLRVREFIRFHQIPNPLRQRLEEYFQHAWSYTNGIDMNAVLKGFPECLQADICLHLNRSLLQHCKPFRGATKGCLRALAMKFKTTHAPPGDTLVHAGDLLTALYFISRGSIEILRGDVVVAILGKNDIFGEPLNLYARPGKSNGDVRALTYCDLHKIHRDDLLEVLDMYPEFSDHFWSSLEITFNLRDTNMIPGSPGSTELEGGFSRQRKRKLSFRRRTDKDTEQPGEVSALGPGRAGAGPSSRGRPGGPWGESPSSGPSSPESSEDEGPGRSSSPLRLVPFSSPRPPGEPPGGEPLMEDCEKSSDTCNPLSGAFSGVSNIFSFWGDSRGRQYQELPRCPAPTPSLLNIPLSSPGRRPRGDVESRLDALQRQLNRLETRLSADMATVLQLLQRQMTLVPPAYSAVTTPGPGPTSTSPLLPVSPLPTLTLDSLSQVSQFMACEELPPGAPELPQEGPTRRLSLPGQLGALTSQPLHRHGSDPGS
Sequence of Fibroblast growth factor receptor 2 (Homo sapiens) (P21802 22-821 limits assumed): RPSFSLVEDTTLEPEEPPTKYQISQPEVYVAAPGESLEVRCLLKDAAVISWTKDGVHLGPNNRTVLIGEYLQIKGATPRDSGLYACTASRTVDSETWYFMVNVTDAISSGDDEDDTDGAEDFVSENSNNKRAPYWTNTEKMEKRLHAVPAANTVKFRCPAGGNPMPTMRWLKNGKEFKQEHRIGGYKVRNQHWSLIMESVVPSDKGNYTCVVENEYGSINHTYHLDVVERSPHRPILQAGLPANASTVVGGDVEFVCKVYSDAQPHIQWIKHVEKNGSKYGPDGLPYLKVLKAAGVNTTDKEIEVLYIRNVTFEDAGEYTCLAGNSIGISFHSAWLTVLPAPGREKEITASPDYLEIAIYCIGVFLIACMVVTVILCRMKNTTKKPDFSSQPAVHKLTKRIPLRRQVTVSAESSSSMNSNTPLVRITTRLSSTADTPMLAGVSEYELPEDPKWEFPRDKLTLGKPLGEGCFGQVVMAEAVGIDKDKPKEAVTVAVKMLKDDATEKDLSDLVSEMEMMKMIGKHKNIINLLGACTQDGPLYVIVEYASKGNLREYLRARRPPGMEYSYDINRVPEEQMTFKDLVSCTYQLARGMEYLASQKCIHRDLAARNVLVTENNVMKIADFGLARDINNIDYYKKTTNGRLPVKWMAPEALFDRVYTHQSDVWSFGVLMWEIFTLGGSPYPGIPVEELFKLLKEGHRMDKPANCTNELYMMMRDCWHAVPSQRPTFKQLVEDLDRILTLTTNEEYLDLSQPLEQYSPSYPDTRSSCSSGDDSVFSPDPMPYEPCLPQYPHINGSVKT
Sequence of Mast/stem cell growth factor receptor Kit (Homo sapiens), P10721 [V560G] (P10721 whole entry V560G, the tested form may be a part): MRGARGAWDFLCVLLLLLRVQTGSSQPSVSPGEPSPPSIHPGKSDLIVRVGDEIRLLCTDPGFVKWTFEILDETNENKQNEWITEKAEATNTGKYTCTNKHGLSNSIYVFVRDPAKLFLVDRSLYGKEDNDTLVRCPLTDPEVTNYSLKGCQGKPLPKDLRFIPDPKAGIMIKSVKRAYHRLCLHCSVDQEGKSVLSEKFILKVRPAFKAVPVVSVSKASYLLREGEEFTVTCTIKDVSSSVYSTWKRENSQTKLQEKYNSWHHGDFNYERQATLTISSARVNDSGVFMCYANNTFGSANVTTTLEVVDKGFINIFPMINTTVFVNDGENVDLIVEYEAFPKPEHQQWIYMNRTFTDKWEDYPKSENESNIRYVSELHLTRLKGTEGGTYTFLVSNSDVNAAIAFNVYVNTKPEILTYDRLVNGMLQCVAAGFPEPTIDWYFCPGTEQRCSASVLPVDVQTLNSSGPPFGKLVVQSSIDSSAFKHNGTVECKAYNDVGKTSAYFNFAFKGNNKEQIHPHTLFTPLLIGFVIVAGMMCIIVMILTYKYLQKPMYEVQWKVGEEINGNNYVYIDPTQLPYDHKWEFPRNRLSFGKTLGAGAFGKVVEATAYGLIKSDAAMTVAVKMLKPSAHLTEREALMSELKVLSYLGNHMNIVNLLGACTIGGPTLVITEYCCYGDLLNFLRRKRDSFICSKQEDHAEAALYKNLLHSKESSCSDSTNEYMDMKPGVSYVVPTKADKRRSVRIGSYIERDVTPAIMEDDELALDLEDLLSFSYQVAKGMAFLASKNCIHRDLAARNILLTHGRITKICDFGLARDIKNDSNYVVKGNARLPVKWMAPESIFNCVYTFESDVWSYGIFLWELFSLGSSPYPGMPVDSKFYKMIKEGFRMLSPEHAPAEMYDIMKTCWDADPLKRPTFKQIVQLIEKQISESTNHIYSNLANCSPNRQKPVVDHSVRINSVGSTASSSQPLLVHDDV

Row | SMILES | Activity [1] | Activity (BaF3 [2]) | IC50 [3] [µM] | Activity [4] [%] | Activity [5] [%] | Activity [6] [%] | Activity [7] [%] | Activity [8] [%] | Activity [9] [%] | Activity [10] [%] | Activity [11] [%] | clearance [12] [mL/min/kg] | IC50 [13] [µM] | Activity [14] | Activity (BaF3 [15])
1 | C[C@@H]1CCc2ncc(F)cc2[C@H]2CCCN2c2ccn3ncc(c3n2)C(=O)N1 [SELITRECTINIB] | Toxic | Active |  |  |  |  |  |  |  |  |  |  |  |  | 
2 | O=C1NC2(CC2)COc2ncc(F)cc2[C@H]2COCCN2c2ccn3ncc1c3n2 |  |  | 13 | 109 | 93 | 96 | 86 | 85 | 54 | 33 | 55 | 19.3 | 0.001 | Toxic | Active
